In EP3820512B1, “IMMUNOMODULATING COMPOSITIONS COMPRISING OLIGOSACCHARIDE DERIVATIVES” (priority 2018, dated 2020):

Columns and labels:
TLR2 = molecular target: T1, TLR2 (Homo sapiens, UniProt O60603); assay: TLR2 activity in PMA-stimulated THP-1 monocyte cells, ELISA of cell lysate; type: cell-based; conditions: THP-1 cells
T1 construct: endogenous in cells; host or cells: THP-1 monocyte cells stimulated with PMA
Method: THP-1 monocyte cells (1×10^5) were stimulated with 200nM of PMA for 48h and treated with different concentrations of test compounds. The TLR2 activity was measured after 24 h from the cell lysate using ELISA.

[1] = tested on: human peripheral blood monocytes; assay: IL-10 production in human peripheral blood monocytes; type: cell-based; conditions: after 48 h
TLR9 = molecular target: T2, TLR9 (Homo sapiens, UniProt Q9NR96); assay: TLR9 antagonism: IFN-α ELISA in hPBMC with TLR9 ligand ODN2216; type: cell-based; conditions: in combination with ODN2216, hPBMC, 48h
T2 construct: endogenous in cells; host or cells: hPBMC (human peripheral blood monocytes)
T2 sequence (Q9NR96 26-1032): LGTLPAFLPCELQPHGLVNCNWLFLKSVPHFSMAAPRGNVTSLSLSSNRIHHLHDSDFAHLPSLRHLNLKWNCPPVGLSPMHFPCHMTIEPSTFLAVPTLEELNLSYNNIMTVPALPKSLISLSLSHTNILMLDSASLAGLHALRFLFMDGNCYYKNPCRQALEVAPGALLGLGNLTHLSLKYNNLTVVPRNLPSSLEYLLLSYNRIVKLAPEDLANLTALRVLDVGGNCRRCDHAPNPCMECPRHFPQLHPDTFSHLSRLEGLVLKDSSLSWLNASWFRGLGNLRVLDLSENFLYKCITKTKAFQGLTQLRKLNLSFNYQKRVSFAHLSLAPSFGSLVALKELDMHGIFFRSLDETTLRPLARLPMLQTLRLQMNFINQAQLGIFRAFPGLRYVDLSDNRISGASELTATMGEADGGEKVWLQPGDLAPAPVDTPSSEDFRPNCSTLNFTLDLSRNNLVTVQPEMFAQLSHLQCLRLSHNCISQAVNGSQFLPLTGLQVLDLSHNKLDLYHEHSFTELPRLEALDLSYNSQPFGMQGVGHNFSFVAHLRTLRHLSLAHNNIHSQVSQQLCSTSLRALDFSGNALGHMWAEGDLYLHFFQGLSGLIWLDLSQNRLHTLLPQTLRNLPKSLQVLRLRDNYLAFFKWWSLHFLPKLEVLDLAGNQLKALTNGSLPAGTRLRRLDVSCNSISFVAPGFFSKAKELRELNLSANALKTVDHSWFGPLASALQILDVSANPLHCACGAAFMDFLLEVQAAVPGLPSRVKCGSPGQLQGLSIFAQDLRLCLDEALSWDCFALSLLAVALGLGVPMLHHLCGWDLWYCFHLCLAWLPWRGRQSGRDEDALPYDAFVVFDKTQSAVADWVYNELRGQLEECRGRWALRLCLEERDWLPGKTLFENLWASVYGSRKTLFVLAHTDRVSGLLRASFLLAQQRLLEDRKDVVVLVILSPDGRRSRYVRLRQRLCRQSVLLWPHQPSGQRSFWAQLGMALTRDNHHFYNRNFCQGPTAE
Method: Compound 8 antagonizes the TLR9 activities and downregulates the production of IFN-α in combination with TLR9 ligand ODN2216 in hPBMC after 48h of treatment as detected by ELISA (FIG. 11).

HUVECs = assay: Cytotoxicity in HUVECs, MTT cell proliferation kit; type: cell-based, human; conditions: 100 µM, 24h
Method: Selected TLR2/4 antagonist compounds 2, 6, 7, 8, 14, 17 and 32 were evaluated for cytotoxicity in HUVECs at 100 µM concentration. The cells were treated with compounds and incubated for 24h. Cell viability was assessed using MTT cell proliferation kit (Promega). All the compounds were not toxic to HUVECs (FIG. 15).

T1 sequence (O60603 21-784): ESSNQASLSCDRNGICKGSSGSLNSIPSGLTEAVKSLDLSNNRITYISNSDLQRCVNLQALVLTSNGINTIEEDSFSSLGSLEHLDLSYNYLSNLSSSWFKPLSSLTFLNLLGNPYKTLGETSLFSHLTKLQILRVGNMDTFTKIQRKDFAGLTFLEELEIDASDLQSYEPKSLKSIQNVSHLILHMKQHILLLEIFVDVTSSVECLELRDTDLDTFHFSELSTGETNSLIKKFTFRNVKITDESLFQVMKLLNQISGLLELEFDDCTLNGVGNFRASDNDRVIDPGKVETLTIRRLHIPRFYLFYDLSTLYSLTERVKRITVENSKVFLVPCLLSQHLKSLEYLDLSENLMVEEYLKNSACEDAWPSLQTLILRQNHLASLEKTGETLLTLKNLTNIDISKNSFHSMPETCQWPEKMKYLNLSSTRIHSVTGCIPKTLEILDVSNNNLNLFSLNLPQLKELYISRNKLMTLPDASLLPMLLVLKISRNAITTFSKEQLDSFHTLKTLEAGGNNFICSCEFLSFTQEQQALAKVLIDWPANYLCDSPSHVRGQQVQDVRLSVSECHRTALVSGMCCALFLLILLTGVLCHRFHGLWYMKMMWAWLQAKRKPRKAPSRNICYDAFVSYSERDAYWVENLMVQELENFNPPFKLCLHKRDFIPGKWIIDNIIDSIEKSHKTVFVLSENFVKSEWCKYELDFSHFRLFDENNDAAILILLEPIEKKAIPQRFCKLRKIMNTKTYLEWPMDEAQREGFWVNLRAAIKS

For `CC(=O)N[C@H]1[C@H](Oc2ccc([N+](=O)[O-])cc2)O[C@H](CO)[C@@H](O)[C@@H]1O` [Compound 8, p-Nitrophenyl 2-acetamido-2-deoxy-β-D-glucopyranoside], the “% inhibition over control TLR2” value (TLR2; Concentration 1-10 µM) was “+ (+ means that the % of inhibition or activation is in the range of 15-25%)”, the “% inhibition over control TLR2” value (TLR2; Concentration 75-100 µM) was “++ (++ means that the % of inhibition or activation is in the range of 25-75%)” and the IL-10 production ([1]; 0.1-1.0 µM) was “increase”. The IL-10 production ([1]; 10-100 µM) was “decrease”, the “production of IFN-α” value (TLR9) was “downregulates” and the “cytotoxicity in HUVECs (cell viability)” value (HUVECs) was “not toxic”.
